# Assays:
# Experiment in all cases: Kinase panel, CaNDY 1 µM
# Format in all cases: biochemical
# Details in all cases: CaNDY 1 µM relative to DMSO
# SIK = target: T1, SIK (Homo sapiens, UniProt P57059)
# T1 construct: purchased Carna Biosciences
# Summary of the method: (§1)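 GST-tagged (N-term) full-length human kinases, baculovirus-expressed; 1% DMSO final; 1 h, RT; mobility shift; % inhibition vs no-inhibitor control from P/(P+S).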
# MGC42105 = target: T2, MGC42105 (Homo sapiens, UniProt Q8IY84)
# T2 construct: purchased Carna Biosciences
# T2 sequence (Q8IY84 whole entry): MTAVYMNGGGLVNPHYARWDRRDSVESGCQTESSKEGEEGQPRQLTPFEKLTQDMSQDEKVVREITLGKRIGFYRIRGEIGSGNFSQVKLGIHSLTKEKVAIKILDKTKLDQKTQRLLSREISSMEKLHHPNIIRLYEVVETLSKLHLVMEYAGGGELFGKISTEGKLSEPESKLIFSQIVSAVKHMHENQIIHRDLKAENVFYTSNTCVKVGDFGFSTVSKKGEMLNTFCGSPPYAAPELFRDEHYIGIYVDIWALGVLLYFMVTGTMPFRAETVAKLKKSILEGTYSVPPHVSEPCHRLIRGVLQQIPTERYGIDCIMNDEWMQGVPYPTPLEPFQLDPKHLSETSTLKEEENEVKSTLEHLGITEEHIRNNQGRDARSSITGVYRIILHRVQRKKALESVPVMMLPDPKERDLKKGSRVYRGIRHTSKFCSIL
# Summary of the method: as §1
# HIPK2 = target: T3, HIPK2 (Homo sapiens, UniProt Q9H2X6)
# T3 construct: purchased Carna Biosciences
# T3 sequence (Q9H2X6 whole entry): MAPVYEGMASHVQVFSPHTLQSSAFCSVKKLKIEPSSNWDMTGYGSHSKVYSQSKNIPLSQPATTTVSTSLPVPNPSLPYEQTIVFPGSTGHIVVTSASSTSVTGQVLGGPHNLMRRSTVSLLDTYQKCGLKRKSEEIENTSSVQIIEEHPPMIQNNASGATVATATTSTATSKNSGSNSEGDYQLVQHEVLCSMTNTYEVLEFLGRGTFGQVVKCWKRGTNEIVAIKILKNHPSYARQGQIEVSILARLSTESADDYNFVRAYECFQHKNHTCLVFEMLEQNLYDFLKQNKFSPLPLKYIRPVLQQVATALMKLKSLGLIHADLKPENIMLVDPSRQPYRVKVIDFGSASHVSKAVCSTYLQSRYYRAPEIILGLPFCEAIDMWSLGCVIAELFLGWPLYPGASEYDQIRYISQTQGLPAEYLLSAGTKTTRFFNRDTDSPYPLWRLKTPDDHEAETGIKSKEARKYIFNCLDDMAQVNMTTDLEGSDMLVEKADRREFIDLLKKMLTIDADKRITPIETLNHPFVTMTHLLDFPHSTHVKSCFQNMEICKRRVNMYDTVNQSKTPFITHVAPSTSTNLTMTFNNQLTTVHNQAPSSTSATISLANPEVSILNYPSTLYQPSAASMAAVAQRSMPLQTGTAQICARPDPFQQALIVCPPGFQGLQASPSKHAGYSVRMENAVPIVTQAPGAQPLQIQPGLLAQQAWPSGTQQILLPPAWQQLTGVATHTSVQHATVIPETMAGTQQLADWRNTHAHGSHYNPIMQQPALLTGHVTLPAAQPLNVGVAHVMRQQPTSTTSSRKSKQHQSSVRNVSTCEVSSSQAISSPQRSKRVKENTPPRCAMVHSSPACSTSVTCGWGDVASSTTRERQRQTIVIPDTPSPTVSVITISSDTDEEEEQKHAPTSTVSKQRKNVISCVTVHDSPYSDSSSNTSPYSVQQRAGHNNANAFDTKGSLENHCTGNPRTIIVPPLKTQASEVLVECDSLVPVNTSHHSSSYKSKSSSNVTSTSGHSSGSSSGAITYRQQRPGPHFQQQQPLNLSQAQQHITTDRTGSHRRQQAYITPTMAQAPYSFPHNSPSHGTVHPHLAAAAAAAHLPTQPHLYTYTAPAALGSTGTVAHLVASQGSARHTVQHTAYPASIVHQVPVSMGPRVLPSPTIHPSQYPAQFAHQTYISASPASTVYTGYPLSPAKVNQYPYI
# Summary of the method: as §1
# EGFR = target: T4, EGFR (Homo sapiens, UniProt P00533)
# T4 construct: purchased Carna Biosciences
# Summary of the method: as §1
# CLK3 = target: T5, CLK3 (Homo sapiens, UniProt P49761)
# T5 construct: purchased Carna Biosciences
# T5 sequence (P49761 whole entry): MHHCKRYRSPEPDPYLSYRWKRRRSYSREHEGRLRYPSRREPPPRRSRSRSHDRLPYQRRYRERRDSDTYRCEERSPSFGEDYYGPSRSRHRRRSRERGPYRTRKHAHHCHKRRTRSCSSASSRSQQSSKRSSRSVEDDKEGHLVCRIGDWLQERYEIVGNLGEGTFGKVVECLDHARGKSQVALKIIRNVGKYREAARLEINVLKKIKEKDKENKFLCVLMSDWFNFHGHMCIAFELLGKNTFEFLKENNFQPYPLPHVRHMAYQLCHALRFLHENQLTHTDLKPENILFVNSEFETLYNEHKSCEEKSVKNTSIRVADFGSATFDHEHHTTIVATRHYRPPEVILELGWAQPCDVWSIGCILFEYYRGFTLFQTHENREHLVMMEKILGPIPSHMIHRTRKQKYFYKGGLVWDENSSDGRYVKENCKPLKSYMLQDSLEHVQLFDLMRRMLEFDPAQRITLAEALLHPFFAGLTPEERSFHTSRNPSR
# Summary of the method: as §1
# PKD1 = target: T6, PKD1 (Homo sapiens, UniProt Q15139)
# T6 construct: purchased Carna Biosciences
# Summary of the method: as §1
# FES = target: T7, FES (Homo sapiens, UniProt P07332)
# T7 construct: purchased Carna Biosciences
# T7 sequence (P07332 whole entry): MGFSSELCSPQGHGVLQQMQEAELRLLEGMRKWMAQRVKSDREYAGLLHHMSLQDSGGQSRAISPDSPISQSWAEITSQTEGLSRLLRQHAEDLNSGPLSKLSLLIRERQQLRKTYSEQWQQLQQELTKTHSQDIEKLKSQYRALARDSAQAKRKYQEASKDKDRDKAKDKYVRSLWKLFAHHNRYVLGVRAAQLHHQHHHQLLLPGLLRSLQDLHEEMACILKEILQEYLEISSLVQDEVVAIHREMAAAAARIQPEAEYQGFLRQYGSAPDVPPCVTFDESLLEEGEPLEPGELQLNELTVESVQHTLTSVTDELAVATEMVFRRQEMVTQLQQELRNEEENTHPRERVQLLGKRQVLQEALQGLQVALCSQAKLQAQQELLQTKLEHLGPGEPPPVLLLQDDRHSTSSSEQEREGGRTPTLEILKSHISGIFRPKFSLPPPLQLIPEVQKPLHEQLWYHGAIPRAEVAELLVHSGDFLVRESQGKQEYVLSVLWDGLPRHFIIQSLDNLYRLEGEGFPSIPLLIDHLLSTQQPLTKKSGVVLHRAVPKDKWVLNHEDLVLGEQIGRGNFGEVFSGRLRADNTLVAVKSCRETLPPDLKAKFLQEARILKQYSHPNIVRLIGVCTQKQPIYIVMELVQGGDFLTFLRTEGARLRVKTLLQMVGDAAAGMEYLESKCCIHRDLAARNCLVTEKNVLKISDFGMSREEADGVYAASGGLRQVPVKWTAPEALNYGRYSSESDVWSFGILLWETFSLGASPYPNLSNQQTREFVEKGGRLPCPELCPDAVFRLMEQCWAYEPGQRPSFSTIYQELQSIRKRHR
# Summary of the method: as §1
# JAK2 = target: T8, JAK2 (Homo sapiens, UniProt O60674)
# T8 construct: purchased Carna Biosciences
# T8 sequence (O60674 whole entry): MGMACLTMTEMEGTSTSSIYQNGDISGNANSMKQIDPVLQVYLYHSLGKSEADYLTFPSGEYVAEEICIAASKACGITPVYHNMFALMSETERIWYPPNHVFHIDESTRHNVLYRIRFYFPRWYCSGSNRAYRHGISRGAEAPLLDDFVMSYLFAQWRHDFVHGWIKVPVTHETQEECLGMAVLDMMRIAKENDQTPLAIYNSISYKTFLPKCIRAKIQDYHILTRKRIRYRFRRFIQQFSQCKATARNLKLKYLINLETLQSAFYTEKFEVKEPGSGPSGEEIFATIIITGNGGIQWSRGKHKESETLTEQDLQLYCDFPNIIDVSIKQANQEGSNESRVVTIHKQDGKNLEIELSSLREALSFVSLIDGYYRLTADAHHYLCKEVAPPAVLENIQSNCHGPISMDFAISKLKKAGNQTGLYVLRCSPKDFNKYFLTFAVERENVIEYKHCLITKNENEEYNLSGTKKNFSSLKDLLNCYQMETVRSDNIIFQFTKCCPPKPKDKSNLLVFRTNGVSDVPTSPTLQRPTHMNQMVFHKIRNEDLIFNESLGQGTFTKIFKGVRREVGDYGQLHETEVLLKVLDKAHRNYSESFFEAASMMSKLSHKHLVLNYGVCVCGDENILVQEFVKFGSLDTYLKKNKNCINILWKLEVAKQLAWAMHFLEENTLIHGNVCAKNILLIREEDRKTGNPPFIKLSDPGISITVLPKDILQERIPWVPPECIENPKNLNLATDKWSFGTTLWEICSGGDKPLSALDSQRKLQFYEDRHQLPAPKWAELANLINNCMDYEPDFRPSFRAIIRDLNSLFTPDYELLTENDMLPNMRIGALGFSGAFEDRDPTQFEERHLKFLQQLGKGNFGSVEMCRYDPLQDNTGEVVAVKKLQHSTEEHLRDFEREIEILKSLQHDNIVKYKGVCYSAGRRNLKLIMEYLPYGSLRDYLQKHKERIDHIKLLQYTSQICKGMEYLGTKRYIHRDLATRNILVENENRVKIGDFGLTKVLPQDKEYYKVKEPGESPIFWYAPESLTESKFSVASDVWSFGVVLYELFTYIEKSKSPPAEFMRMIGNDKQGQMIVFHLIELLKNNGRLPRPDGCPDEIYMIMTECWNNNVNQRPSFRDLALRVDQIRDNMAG
# Summary of the method: as §1
# BRSK1 = target: T9, BRSK1 (Homo sapiens, UniProt Q8TDC3)
# T9 construct: purchased Carna Biosciences
# Summary of the method: as §1
# WNK2 = target: T10, WNK2 (Homo sapiens, UniProt Q9Y3S1)
# T10 construct: purchased Carna Biosciences
# Summary of the method: as §1
# AXL = target: T11, AXL (Homo sapiens, UniProt P30530)
# T11 construct: purchased Carna Biosciences
# Summary of the method: as §1
# PIM3 = target: T12, PIM3 (Homo sapiens, UniProt Q86V86)
# T12 construct: purchased Carna Biosciences
# Summary of the method: as §1
# DAPK1 = target: T13, DAPK1 (Homo sapiens, UniProt P53355)
# T13 construct: purchased Carna Biosciences
# Summary of the method: as §1
# YES = target: T14, YES (Homo sapiens, UniProt P07947)
# T14 construct: purchased Carna Biosciences
# Summary of the method: as §1
# HIPK4 = target: T15, HIPK4 (Homo sapiens, UniProt Q8NE63)
# T15 construct: purchased Carna Biosciences
# Summary of the method: as §1
# NEK9 = target: T16, NEK9 (Homo sapiens, UniProt Q8TD19)
# T16 construct: purchased Carna Biosciences
# T16 sequence (Q8TD19 whole entry): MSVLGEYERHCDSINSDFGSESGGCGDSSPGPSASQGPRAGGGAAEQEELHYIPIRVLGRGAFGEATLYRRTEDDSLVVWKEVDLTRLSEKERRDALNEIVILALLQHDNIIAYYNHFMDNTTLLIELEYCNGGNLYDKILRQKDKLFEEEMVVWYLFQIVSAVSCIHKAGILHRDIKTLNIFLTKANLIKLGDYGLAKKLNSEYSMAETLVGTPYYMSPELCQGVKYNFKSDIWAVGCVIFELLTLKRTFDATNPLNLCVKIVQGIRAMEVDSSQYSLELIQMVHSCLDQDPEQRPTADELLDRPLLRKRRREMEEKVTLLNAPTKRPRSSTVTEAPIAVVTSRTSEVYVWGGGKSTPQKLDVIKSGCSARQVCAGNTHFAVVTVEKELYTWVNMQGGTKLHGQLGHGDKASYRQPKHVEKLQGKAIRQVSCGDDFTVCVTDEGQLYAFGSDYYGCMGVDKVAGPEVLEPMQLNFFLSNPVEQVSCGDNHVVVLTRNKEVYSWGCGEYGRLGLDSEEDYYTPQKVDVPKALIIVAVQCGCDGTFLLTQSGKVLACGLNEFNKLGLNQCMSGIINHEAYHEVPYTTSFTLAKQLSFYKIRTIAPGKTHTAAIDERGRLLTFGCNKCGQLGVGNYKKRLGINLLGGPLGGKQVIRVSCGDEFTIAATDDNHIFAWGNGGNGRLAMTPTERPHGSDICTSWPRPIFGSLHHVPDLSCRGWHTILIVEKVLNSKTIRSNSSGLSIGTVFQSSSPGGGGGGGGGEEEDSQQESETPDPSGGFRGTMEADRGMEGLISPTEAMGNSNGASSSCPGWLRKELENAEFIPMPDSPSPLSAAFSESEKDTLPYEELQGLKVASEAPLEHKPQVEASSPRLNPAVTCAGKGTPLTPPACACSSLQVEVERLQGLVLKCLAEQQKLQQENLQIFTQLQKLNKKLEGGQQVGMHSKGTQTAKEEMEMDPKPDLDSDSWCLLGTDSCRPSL
# Summary of the method: as §1
# RON = target: T17, RON (Homo sapiens, UniProt Q04912)
# T17 construct: purchased Carna Biosciences
# Summary of the method: as §1
# PKACγ = target: T18, PKACγ (Homo sapiens, UniProt P22612)
# T18 construct: purchased Carna Biosciences
# Summary of the method: as §1
# EGFR(L858R) = target: T19, EGFR(L858R) (Homo sapiens, UniProt P00533, L858R)
# T19 construct: purchased Carna Biosciences
# Summary of the method: as §1
# CDC7/ASK = target: T20, CDC7/ASK (Homo sapiens, UniProt O00311)
# T20 construct: purchased Carna Biosciences
# Summary of the method: as §1
# JAK3 = target: T21, JAK3 (Homo sapiens, UniProt P52333)
# T21 construct: purchased Carna Biosciences
# Summary of the method: as §1
# RET(M918T) = target: T22, RET(M918T) (Homo sapiens, UniProt P07949, M918T)
# T22 construct: purchased Carna Biosciences
# Summary of the method: as §1
# PDGFRα(V561D) = target: T23, PDGFRα(V561D) (Homo sapiens, UniProt P16234, V561D)
# T23 construct: purchased Carna Biosciences
# Summary of the method: as §1
# CDK6/CycD3 = target: T24, CDK6/CycD3 (Homo sapiens, UniProt Q00534)
# T24 construct: purchased Carna Biosciences
# Summary of the method: as §1
# CDK7/CycH/MAT1 = target: T25, CDK7/CycH/MAT1 (Homo sapiens, UniProt P50613)
# T25 construct: purchased Carna Biosciences
# Summary of the method: as §1
# TNIK = target: T26, TNIK (Homo sapiens, UniProt Q9UKE5)
# T26 construct: purchased Carna Biosciences
# Summary of the method: as §1
# FGFR4(V550E) = target: T27, FGFR4(V550E) (Homo sapiens, UniProt P22455, V550E)
# T27 construct: purchased Carna Biosciences
# Summary of the method: as §1
# PKCζ = target: T28, PKCζ (Homo sapiens, UniProt Q05513)
# T28 construct: purchased Carna Biosciences
# Summary of the method: as §1
# FGFR2 = target: T29, FGFR2 (Homo sapiens, UniProt P21802)
# T29 construct: purchased Carna Biosciences
# Summary of the method: as §1
# p38δ = target: T30, p38δ (Homo sapiens, UniProt O15264)
# T30 construct: purchased Carna Biosciences
# Summary of the method: as §1
# MAP2K1_Cascade = target: T31, MAP2K1_Cascade (Homo sapiens, UniProt Q02750)
# T31 construct: purchased Carna Biosciences
# Summary of the method: as §1
# PKCη = target: T32, PKCη (Homo sapiens, UniProt P24723)
# T32 construct: purchased Carna Biosciences
# Summary of the method: as §1
# NPM1-ALK = target: T33, NPM1-ALK (Homo sapiens, UniProt P06748+Q9UM73)
# T33 construct: purchased Carna Biosciences
# Summary of the method: as §1
# p38β = target: T34, p38β (Homo sapiens, UniProt Q15759)
# T34 construct: purchased Carna Biosciences
# Summary of the method: as §1
# NEK1 = target: T35, NEK1 (Homo sapiens, UniProt Q96PY6)
# T35 construct: purchased Carna Biosciences
# Summary of the method: as §1
smiles,measurement,setting,value
"[H]/N=C1/NC(=O)C(=Cc2ccc3c(c2)CCO3)S1 [CaNDY, (Z)-5-[(2,3-dihydrobenzofuran-5-yl)methylene]-2-iminothiazolidin-4-one]",%Activity,SIK,99.9%
same,remaining activity at 1 µM,MGC42105,102%
same,remaining activity at 1 µM,HIPK2,22.6%
same,%Activity,EGFR,99.9%
same,%Activity,CLK3,16.5%
same,remaining activity at 1 µM,PKD1,72.9%
same,remaining activity at 1 µM,FES,109%
same,%Activity,JAK2,100.3%
same,remaining activity at 1 µM,BRSK1,97.3%
same,remaining activity at 1 µM,WNK2,101%
same,remaining activity at 1 µM,AXL,103%
same,remaining activity at 1 µM,PIM3,41.4%
same,remaining activity at 1 µM,DAPK1,80.6%
same,remaining activity at 1 µM,YES,101%
same,remaining activity at 1 µM,HIPK4,78.2%
same,remaining activity at 1 µM,NEK9,91.6%
same,remaining activity at 1 µM,RON,98.6%
same,remaining activity at 1 µM,PKACγ,78.2%
same,%Activity,EGFR(L858R),105.7%
same,remaining activity at 1 µM,CDC7/ASK,68%
same,remaining activity at 1 µM,JAK3,94.2%
same,remaining activity at 1 µM,RET(M918T),102%
same,remaining activity at 1 µM,PDGFRα(V561D),90.3%
same,remaining activity at 1 µM,CDK6/CycD3,97.1%
same,remaining activity at 1 µM,CDK7/CycH/MAT1,93.6%
same,remaining activity at 1 µM,TNIK,60%
same,remaining activity at 1 µM,FGFR4(V550E),102%
same,remaining activity at 1 µM,PKCζ,95.9%
same,remaining activity at 1 µM,FGFR2,104%
same,remaining activity at 1 µM,p38δ,74.8%
same,remaining activity at 1 µM,MAP2K1_Cascade,99.3%
same,remaining activity at 1 µM,PKCη,92.8%
same,remaining activity at 1 µM,NPM1-ALK,97.8%
same,remaining activity at 1 µM,p38β,99.7%
same,remaining activity at 1 µM,NEK1,95.6%

# From PMC4522657, “Identification of a DYRK1A Inhibitor that Induces Degradation of the Target Kinase using Co-chaperone CDC37 fused with Luciferase nanoKAZ” (Scientific Reports, 2015)
